Target: HLA A*3001 (Homo sapiens, UniProt P04439, D140H/D185E/E176W/F33S/G80R/H175R/K168Q/R138E/R41S)
Experiment: biochemical
Assay type: binding

First: XXXXXXXRX [3064.0155]
Second: XXXXXXXSX [3064.0156]
The “Normalized average relative binding affinity(ARB)” value of the first is higher: 0.35 for the first, 0.23 for the second.

Going from XXXXXXXTX [3064.0157] to XXXXXXXVX [3064.0158], the “Normalized average relative binding affinity(ARB)” value falls from 0.31 to 0.19.

Compared with XXXXXXXWX [3064.0159], XXXXXXXYX [3064.0160] is higher in “Normalized average relative binding affinity(ARB)” value: 0.16 for the first, 1.0 for the second.

Target: HLA A*3201 (Homo sapiens, UniProt P04439, A270S/D101S/D185E/E176V/E277Q/F133L/G103R/G107R/G231S/H175R/I121M/I218V/I322F/K168Q/L105A/L300P/L318F/M331R/P208A/P217A/Q94H/R106L/R138Q/S129P/T104I/T323A/T345S/V100E/V321M/V358M)
Experiment: biochemical
Assay type: binding

Going from XXXXXXXRX [3064.0155] to XXXXXXXSX [3064.0156], the “Normalized average relative binding affinity(ARB)” value rises from 0.26 to 1.0.

Going from XXXXXXXTX [3064.0157] to XXXXXXXVX [3064.0158], the “Normalized average relative binding affinity(ARB)” value falls from 0.86 to 0.62.

Going from XXXXXXXWX [3064.0159] to XXXXXXXYX [3064.0160], the “Normalized average relative binding affinity(ARB)” value rises from 0.089 to 0.24.

Target: HLA A*6802 (Homo sapiens, UniProt P04439, A269V/D140Y/D185E/E176V/E277Q/E87N/F33Y/G231S/I121R/I166T/I218V/L180W/L300P/L318F/N151K/P208A/P217A/Q86R/R138H/R169H/S129P/T345S/V36M)
Experiment: not given
Assay type: binding

First: XXXXXXXRX [3064.0155]
Second: XXXXXXXSX [3064.0156]
The “Normalized average relative binding affinity(ARB)” value of the first is lower: 0.13 for the first, 0.27 for the second.

Going from XXXXXXXTX [3064.0157] to XXXXXXXVX [3064.0158], the “Normalized average relative binding affinity(ARB)” value falls from 0.37 to 0.17.

Going from XXXXXXXWX [3064.0159] to XXXXXXXYX [3064.0160], the “Normalized average relative binding affinity(ARB)” value rises from 0.16 to 0.22.

Target: HLA B*0801 (Homo sapiens, UniProt P01889, A93T/A95T/D138N/E176V/E187T/K202T/Q94N/R180D/S35A/V36M/Y33D/Y91F)
Experiment: biochemical
Assay type: binding

Compared with XXXXXXXRX [3064.0155], XXXXXXXSX [3064.0156] is higher in “Normalized average relative binding affinity(ARB)” value: 0.30 for the first, 1.0 for the second.

Going from XXXXXXXTX [3064.0157] to XXXXXXXVX [3064.0158], the “Normalized average relative binding affinity(ARB)” value rises from 0.24 to 0.48.

First: XXXXXXXWX [3064.0159]
Second: XXXXXXXYX [3064.0160]
The “Normalized average relative binding affinity(ARB)” value of the first is lower: 0.11 for the first, 0.13 for the second.

Target: HLA B*1501 (Homo sapiens, UniProt P01889, A329T/A93T/A95T/C349S/D201E/D98Y/E187L/E204Q/E69M/E70A/K202T/N87E/Q94N/R155S/R180W/S121R/S35A/S48A/V306I/V36M/Y140S/Y91S)
Experiment: biochemical
Assay type: binding

First: XXXXXXXRX [3064.0155]
Second: XXXXXXXSX [3064.0156]
The “Normalized average relative binding affinity(ARB)” value of the first is lower: 0.15 for the first, 0.34 for the second.

Going from XXXXXXXTX [3064.0157] to XXXXXXXVX [3064.0158], the “Normalized average relative binding affinity(ARB)” value falls from 0.40 to 0.38.

First: XXXXXXXWX [3064.0159]
Second: XXXXXXXYX [3064.0160]
The “Normalized average relative binding affinity(ARB)” value of the first is lower: 0.035 for the first, 0.20 for the second.

Target: HLA B*1503 (Homo sapiens, UniProt P01889, A329T/A93T/A95T/C349S/D201E/D98Y/E187L/E204Q/K202T/N87E/Q94N/R155S/R180L/S121R/S35A/V306I/V36M/Y140S/Y91S)
Experiment: biochemical
Assay type: binding

Going from XXXXXXXRX [3064.0155] to XXXXXXXSX [3064.0156], the “Normalized average relative binding affinity(ARB)” value rises from 0.11 to 1.0.

Compared with XXXXXXXTX [3064.0157], XXXXXXXVX [3064.0158] is higher in “Normalized average relative binding affinity(ARB)” value: 0.23 for the first, 0.34 for the second.

First: XXXXXXXWX [3064.0159]
Second: XXXXXXXYX [3064.0160]
The “Normalized average relative binding affinity(ARB)” value of the first is lower: 0.13 for the first, 0.17 for the second.

Target: HLA B*3501 (Homo sapiens, UniProt P01889, A329T/A93T/A95T/C349S/D201E/D98Y/E176V/E187L/E204Q/E69T/I218V/K202T/L119I/Q94N/R155S/R180L/S121R/S35A/S48A/T118I/V127L/V306I/V36M/Y140S/Y91F)
Experiment: not given
Assay type: binding

Going from XXXXXXXRX [3064.0155] to XXXXXXXSX [3064.0156], the “Normalized average relative binding affinity(ARB)” value rises from 0.072 to 0.20.

Going from XXXXXXXTX [3064.0157] to XXXXXXXVX [3064.0158], the “Normalized average relative binding affinity(ARB)” value rises from 0.26 to 0.37.

Going from XXXXXXXWX [3064.0159] to XXXXXXXYX [3064.0160], the “Normalized average relative binding affinity(ARB)” value rises from 0.047 to 0.16.

Target: HLA B*5101 (Homo sapiens, UniProt P01889, A329T/A93T/A95T/C349S/D138N/D201E/D98Y/E187L/E204Q/E69T/G107R/I218V/K202T/L105A/L119W/N104I/Q94N/R106L/R155S/R180L/S101N/S121T/S35A/S48A/V306I/V36M/Y195H/Y91F)
Experiment: not given
Assay type: binding

Compared with XXXXXXXRX [3064.0155], XXXXXXXSX [3064.0156] is higher in “Normalized average relative binding affinity(ARB)” value: 0.36 for the first, 0.44 for the second.

Going from XXXXXXXTX [3064.0157] to XXXXXXXVX [3064.0158], the “Normalized average relative binding affinity(ARB)” value falls from 0.57 to 0.32.

Going from XXXXXXXWX [3064.0159] to XXXXXXXYX [3064.0160], the “Normalized average relative binding affinity(ARB)” value rises from 0.20 to 0.67.

Target: HLA B*5301 (Homo sapiens, UniProt P01889, A329T/A93T/A95T/C349S/D201E/D98Y/E176V/E187L/E204Q/E69T/G107R/I218V/K202T/L105A/L119I/N104I/Q94N/R106L/R155S/R180L/S101N/S121R/S35A/S48A/T118I/V127L/V306I/V36M/Y140S/Y91F)
Experiment: not given
Assay type: binding

Going from XXXXXXXRX [3064.0155] to XXXXXXXSX [3064.0156], the “Normalized average relative binding affinity(ARB)” value falls from 0.46 to 0.11.

First: XXXXXXXTX [3064.0157]
Second: XXXXXXXVX [3064.0158]
The “Normalized average relative binding affinity(ARB)” value of the first is lower: 0.22 for the first, 0.51 for the second.

First: XXXXXXXWX [3064.0159]
Second: XXXXXXXYX [3064.0160]
The “Normalized average relative binding affinity(ARB)” value of the first is lower: 0.099 for the first, 0.23 for the second.

Target: HLA B*5401 (Homo sapiens, UniProt P01889, A329T/C349S/D138N/D201E/E176V/E187T/E204Q/E69G/I76V/K202T/L119W/R155S/R180L/S121T/S35A/S48A/V127L/V306I/V36M/Y140L)
Experiment: not given
Assay type: binding

First: XXXXXXXRX [3064.0155]
Second: XXXXXXXSX [3064.0156]
The “Normalized average relative binding affinity(ARB)” value of the first is lower: 0.059 for the first, 1.0 for the second.

Compared with XXXXXXXTX [3064.0157], XXXXXXXVX [3064.0158] is lower in “Normalized average relative binding affinity(ARB)” value: 0.20 for the first, 0.10 for the second.

First: XXXXXXXWX [3064.0159]
Second: XXXXXXXYX [3064.0160]
The “Normalized average relative binding affinity(ARB)” value of the first is higher: 0.051 for the first, 0.0018 for the second.

Target: HLA B*5801 (Homo sapiens, UniProt P01889, A329T/C349S/D201E/D98Y/E176V/E187L/E204Q/E69T/G107R/I218V/I90N/K202T/L105A/L119I/N104I/N87E/Q89R/Q94S/R106L/R155S/R180L/R86G/S101N/S121R/S35A/S48A/T118I/V127L/V306I/V36M/Y140S/Y91M)
Experiment: not given
Assay type: binding

First: XXXXXXXRX [3064.0155]
Second: XXXXXXXSX [3064.0156]
The “Normalized average relative binding affinity(ARB)” value of the first is lower: 0.13 for the first, 0.31 for the second.

Going from XXXXXXXTX [3064.0157] to XXXXXXXVX [3064.0158], the “Normalized average relative binding affinity(ARB)” value falls from 0.29 to 0.20.

Going from XXXXXXXWX [3064.0159] to XXXXXXXYX [3064.0160], the “Normalized average relative binding affinity(ARB)” value falls from 0.84 to 0.42.

Target: HLA B*5802 (Homo sapiens, UniProt P01889, A329T/C349S/D201E/D98Y/E176V/E187L/E204Q/E69T/G107R/I218V/I90N/K202T/L105A/N104I/N87E/Q89R/Q94S/R106L/R155S/R180L/R86G/S101N/S121W/S35A/S48A/V127L/V306I/V36M/Y140S/Y91M)
Experiment: not given
Assay type: binding

First: XXXXXXXRX [3064.0155]
Second: XXXXXXXSX [3064.0156]
The “Normalized average relative binding affinity(ARB)” value of the first is higher: 0.37 for the first, 0.30 for the second.

Compared with XXXXXXXTX [3064.0157], XXXXXXXVX [3064.0158] is lower in “Normalized average relative binding affinity(ARB)” value: 0.66 for the first, 0.26 for the second.

First: XXXXXXXWX [3064.0159]
Second: XXXXXXXYX [3064.0160]
The “Normalized average relative binding affinity(ARB)” value of the first is lower: 0.16 for the first, 1.0 for the second.

Target: H-2 D^b (Mus musculus, UniProt P01899)
Sequence (P01887 21-119): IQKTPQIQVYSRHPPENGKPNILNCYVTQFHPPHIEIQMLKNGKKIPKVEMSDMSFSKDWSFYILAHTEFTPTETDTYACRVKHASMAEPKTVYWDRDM
Sequence (P01899 25-362): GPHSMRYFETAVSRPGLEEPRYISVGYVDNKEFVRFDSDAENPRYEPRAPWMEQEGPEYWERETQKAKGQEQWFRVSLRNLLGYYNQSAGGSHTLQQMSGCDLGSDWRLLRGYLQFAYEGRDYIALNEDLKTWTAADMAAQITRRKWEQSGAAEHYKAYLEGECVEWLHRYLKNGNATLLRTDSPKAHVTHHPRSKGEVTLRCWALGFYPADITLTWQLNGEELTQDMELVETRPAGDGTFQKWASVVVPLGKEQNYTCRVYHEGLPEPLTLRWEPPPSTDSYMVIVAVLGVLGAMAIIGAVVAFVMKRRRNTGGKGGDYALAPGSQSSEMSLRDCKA
Experiment: not given
Assay type: binding

Going from XXXXXXXRX [3064.0155] to XXXXXXXSX [3064.0156], the “Normalized average relative binding affinity(ARB)” value rises from 0.068 to 0.13.

First: XXXXXXXTX [3064.0157]
Second: XXXXXXXVX [3064.0158]
The “Normalized average relative binding affinity(ARB)” value of the first is lower: 0.24 for the first, 0.35 for the second.

Compared with XXXXXXXWX [3064.0159], XXXXXXXYX [3064.0160] is higher in “Normalized average relative binding affinity(ARB)” value: 0.13 for the first, 0.97 for the second.

Target: H-2 D^d (Mus musculus, UniProt P01900)
Sequence (P01900 whole entry, looked up): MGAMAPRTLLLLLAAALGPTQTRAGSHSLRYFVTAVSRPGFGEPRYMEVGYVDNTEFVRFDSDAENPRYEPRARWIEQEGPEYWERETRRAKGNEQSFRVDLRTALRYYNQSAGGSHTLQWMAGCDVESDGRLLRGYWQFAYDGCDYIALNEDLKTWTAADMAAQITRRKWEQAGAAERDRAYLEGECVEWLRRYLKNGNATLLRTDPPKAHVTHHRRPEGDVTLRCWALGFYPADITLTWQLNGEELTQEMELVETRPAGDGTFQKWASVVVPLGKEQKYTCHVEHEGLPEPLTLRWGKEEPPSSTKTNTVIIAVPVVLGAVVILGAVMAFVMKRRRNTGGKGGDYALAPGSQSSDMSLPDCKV
Experiment: not given
Assay type: binding

Going from XXXXXXXRX [3064.0155] to XXXXXXXSX [3064.0156], the “Normalized average relative binding affinity(ARB)” value rises from 0.46 to 1.0.

Going from XXXXXXXTX [3064.0157] to XXXXXXXVX [3064.0158], the “Normalized average relative binding affinity(ARB)” value falls from 0.58 to 0.52.

First: XXXXXXXWX [3064.0159]
Second: XXXXXXXYX [3064.0160]
The “Normalized average relative binding affinity(ARB)” value of the first is lower: 0.27 for the first, 0.40 for the second.

Target: H-2 K^d (Mus musculus, UniProt P01902)
Sequence (P01887 21-119): as the sequence (P01887 21-119) above
Sequence (P01902 22-368): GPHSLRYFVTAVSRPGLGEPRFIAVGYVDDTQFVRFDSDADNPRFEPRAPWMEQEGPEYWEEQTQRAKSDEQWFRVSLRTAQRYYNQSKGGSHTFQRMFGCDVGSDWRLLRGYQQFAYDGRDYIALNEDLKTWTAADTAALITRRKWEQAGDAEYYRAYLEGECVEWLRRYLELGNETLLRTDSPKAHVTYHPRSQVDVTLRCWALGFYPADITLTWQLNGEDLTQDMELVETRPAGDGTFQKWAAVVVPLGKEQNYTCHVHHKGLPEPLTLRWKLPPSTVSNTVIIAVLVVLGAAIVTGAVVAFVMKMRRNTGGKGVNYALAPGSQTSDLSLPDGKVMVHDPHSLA
Experiment: not given
Assay type: binding

First: XXXXXXXRX [3064.0155]
Second: XXXXXXXSX [3064.0156]
The “Normalized average relative binding affinity(ARB)” value of the first is lower: 0.49 for the first, 0.61 for the second.

Going from XXXXXXXTX [3064.0157] to XXXXXXXVX [3064.0158], the “Normalized average relative binding affinity(ARB)” value falls from 0.52 to 0.37.

First: XXXXXXXWX [3064.0159]
Second: XXXXXXXYX [3064.0160]
The “Normalized average relative binding affinity(ARB)” value of the first is lower: 0.26 for the first, 0.56 for the second.

Target: H-2 K^k (Mus musculus, UniProt P04223)
Sequence (P01887 21-119): as the sequence (P01887 21-119) above
Sequence (P04223 22-369): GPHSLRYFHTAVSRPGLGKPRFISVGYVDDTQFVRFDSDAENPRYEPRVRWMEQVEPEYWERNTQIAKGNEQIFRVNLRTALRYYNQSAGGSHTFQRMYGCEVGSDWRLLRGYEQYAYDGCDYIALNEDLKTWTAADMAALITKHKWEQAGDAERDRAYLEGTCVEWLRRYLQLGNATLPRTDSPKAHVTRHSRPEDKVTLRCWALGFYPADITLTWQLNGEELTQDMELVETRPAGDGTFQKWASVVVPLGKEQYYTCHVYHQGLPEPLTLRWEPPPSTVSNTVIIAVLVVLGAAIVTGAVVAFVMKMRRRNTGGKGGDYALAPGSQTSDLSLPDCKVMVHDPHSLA
Experiment: not given
Assay type: binding

Compared with XXXXXXXRX [3064.0155], XXXXXXXSX [3064.0156] is higher in “Normalized average relative binding affinity(ARB)” value: 0.10 for the first, 0.48 for the second.

Going from XXXXXXXTX [3064.0157] to XXXXXXXVX [3064.0158], the “Normalized average relative binding affinity(ARB)” value rises from 0.28 to 0.38.

Going from XXXXXXXWX [3064.0159] to XXXXXXXYX [3064.0160], the “Normalized average relative binding affinity(ARB)” value rises from 0.18 to 0.38.
